The text below walks through data of ChEMBL document CHEMBL3867477 (Bioorg Med Chem Lett, 2016).

By Ki is commonly meant the dissociation constant of the complex between target and ligand, obtained from inhibition or displacement. Lower therefore signals tighter binding.

Bounds are passed on as bounds.

A short description of series [1]: Displacement of (2S)-N-(2-phenylphenyl)-1-[2-[1-(tritritiomethyl)benzimidazol-2-yl]sulfanylacetyl]pyrrolidine-2-carboxamide from human OX1 receptor Ile408-Val mutant expressed on CHO cell membrane measured after 3 hrs by TopCount method. In kind it is cell membranes.
For series [2], the target named is Voltage-dependent L-type calcium channel subunit alpha-1C (Homo sapiens, UniProt Q13936). The series can be described thus: Inhibition of Cav1.2 (unknown origin).
Chain of Voltage-dependent L-type calcium channel subunit alpha-1C (Q13936 whole entry): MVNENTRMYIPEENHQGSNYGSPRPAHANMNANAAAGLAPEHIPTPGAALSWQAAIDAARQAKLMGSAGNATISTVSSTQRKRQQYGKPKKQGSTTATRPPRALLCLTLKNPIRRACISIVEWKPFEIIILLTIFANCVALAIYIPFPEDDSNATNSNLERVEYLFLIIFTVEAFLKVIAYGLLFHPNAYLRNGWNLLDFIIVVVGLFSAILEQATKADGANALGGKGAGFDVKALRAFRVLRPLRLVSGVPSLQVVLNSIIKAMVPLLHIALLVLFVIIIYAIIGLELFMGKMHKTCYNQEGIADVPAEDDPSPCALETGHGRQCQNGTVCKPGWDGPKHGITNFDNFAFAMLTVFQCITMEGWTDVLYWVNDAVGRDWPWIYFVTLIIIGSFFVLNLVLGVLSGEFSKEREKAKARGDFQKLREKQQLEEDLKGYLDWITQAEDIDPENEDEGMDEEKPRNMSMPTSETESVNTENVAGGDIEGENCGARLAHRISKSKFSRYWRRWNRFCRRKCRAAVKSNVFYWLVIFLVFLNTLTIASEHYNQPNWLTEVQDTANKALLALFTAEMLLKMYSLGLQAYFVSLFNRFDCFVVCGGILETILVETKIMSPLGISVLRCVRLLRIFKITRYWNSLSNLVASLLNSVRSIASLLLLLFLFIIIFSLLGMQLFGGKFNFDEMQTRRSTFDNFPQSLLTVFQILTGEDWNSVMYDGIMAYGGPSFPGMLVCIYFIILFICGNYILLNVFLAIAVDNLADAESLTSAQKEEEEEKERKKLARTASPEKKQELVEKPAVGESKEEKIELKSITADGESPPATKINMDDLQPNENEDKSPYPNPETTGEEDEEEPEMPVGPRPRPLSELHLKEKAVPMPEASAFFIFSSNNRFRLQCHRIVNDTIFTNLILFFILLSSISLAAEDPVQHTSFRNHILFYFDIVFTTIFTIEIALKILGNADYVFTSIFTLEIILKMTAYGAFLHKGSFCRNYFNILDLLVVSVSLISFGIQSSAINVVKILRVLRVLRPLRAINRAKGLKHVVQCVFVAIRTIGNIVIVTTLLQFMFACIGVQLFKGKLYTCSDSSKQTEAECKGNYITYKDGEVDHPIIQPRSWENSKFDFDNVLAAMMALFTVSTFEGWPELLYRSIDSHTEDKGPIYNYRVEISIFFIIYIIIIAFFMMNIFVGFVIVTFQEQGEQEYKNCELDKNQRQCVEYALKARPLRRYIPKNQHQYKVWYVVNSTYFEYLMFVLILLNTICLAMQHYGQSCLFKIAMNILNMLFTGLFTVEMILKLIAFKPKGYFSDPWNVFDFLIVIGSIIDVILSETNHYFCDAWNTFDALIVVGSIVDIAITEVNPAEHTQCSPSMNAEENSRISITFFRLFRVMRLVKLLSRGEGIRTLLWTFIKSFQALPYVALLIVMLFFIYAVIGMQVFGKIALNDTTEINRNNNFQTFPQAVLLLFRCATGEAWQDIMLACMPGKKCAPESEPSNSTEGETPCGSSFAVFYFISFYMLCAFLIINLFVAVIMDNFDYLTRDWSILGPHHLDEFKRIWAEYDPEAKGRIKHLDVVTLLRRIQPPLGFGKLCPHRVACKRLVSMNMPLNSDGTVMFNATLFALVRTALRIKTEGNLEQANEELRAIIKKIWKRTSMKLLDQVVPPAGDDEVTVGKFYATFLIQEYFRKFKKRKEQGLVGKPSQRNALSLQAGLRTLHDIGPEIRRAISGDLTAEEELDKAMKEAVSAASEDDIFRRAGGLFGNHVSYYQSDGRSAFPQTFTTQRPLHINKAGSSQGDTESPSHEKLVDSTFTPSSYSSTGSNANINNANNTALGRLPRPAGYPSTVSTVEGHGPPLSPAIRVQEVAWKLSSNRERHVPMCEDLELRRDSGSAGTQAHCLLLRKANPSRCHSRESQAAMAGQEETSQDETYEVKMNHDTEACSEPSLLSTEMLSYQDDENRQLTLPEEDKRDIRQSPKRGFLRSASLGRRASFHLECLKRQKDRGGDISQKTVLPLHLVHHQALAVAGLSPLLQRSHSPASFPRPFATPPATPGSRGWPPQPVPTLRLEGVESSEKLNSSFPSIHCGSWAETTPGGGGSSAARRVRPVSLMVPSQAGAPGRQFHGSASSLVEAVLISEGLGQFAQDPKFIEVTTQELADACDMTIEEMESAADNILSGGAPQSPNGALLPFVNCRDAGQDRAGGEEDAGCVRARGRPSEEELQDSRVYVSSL
In series [3] the target is T1, Orexin receptor type 2 (Homo sapiens, UniProt O43614).
T1 sequence (O43614 whole entry): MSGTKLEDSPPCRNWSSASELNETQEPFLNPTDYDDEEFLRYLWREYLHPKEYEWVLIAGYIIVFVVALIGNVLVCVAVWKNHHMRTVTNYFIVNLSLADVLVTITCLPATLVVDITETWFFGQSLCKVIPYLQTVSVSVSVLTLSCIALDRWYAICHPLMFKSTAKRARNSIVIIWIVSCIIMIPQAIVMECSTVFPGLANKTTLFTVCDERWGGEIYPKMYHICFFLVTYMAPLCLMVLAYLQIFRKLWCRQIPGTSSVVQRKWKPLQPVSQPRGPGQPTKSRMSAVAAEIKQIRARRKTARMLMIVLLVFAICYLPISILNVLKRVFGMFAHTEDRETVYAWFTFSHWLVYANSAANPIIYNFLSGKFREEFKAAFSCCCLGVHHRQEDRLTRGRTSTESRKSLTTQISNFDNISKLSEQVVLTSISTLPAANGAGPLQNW
The experiment in a line: Displacement of (2S)-N-(2-pyrrol-1-ylphenyl)-1-[2-[1-(tritritiomethyl)benzimidazol-2-yl]sulfanylacetyl]pyrrolidine-2-carboxamide from human OX2 receptor expressed on CHO cell membrane measured after 3 hrs by TopCount method. The class given is cell membranes.

Series [4] can be described thus: Solubility of the compound. In kind it is physicochemical.
Series [5] concerns CHO. The series can be described thus: Selectivity index, ratio of Ki for human OX2 receptor expressed on CHO cell membrane to Ki for Ile408-Val variant human OX1 receptor expressed on CHO cell membrane. The class given is cell-based.
Series [6] concerns the target Cytochrome P450 2C9 (Homo sapiens, UniProt P11712). The experiment in a line: Inhibition of CYP2C9 (unknown origin). The class given is ADME.
Series [7] has as its target Cytochrome P450 3A4 (Homo sapiens, UniProt P08684). The series can be described thus: Inhibition of CYP3A4 (unknown origin). The class given is ADME.

Chain of Cytochrome P450 3A4 (P08684 whole entry): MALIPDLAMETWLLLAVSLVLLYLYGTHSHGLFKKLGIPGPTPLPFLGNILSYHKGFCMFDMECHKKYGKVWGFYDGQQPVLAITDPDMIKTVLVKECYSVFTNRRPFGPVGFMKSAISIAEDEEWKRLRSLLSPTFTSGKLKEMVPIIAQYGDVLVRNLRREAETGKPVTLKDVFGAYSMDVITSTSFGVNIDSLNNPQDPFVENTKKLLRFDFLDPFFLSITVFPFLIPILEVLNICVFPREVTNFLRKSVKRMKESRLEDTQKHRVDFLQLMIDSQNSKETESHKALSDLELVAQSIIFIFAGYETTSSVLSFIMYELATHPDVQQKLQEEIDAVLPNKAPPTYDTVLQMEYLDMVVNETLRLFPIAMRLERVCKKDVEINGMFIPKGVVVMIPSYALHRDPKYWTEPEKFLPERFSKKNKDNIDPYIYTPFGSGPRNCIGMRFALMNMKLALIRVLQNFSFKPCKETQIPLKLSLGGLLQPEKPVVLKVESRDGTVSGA
Chain of Cytochrome P450 2C9 (P11712 whole entry): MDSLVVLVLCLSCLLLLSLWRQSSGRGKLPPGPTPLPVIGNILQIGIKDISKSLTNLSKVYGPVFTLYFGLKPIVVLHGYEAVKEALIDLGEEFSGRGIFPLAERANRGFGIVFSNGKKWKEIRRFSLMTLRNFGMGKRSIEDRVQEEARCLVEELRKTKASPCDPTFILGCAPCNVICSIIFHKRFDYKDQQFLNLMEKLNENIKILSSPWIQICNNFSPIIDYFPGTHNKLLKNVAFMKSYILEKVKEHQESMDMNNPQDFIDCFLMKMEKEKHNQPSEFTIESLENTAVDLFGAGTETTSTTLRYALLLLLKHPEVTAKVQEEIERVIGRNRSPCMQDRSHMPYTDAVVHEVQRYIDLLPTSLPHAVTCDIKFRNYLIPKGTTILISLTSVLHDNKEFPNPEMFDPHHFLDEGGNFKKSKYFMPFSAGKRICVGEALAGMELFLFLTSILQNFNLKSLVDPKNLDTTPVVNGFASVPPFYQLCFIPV

`O=C(c1cccc(F)c1)N1CCC(F)(F)C(Oc2ccc3ccccc3n2)C1` (racemic): the Ki is 91 nM in series [1] and greater than 4380 nM in series [3]. In addition, the “inhibition (INH)” value in series [2], in series [6] and in series [7] was “Active” in each case. Moreover, the solubility entry in series [4] is recorded as “Insoluble”. In addition, the Ratio Ki in series [5] is greater than 48.
In the case of `O=C(c1cccn2cncc12)N1CCC(F)(F)C(Oc2ccc3ccccc3n2)C1` (racemic), the Ki in series [1] was 2.9 nM; in series [3], greater than 12700 nM. Further, the Ratio Ki in series [5] was greater than 439.
The matching figures for `Cc1ccc(-c2ncccn2)c(C(=O)N2CC(COc3ccc(F)cn3)CC[C@H]2C)c1` (some centres undefined): 11 nM, 11 nM and 1.1.
The matching figures for `O=C(c1cccc2nccn12)N1CCC(F)(F)C(Oc2ccc3ccccc3n2)C1` (racemic): 564 nM, greater than 3330 nM and greater than 6.
As to `O=C(c1ccccc1-n1nccn1)N1CCC(F)(F)C(Oc2ccc(C(F)(F)F)cn2)C1` (centres undefined), the Ki in series [1] worked out at 14 nM; in series [3], 467 nM. Moreover, the “inhibition (INH)” value in series [2], in series [6] and in series [7] was “Active” each time. For the same compound, in series [4], the solubility result is given as “Insoluble”. The Ratio Ki in series [5] is 33.
Turning to `O=C(c1ccccc1-n1nccn1)N1CCC(F)(F)C(Oc2nccc3ccccc23)C1` (centres undefined), the figures for the Ki in series [1] and in series [3] were 6.5 nM and 2.8 nM, respectively. Further, the “inhibition (INH)” value in series [2], in series [6] and in series [7] was “Active” each time. In series [4], the solubility result was “Insoluble”. In addition, the Ratio Ki in series [5] worked out at 0.43.
For the compound `O=C(c1ccccc1-n1nccn1)N1CCC(F)(F)C(Oc2ccc3ccccc3n2)C1` (racemic), the Ki was determined as 3.9 nM in series [1] and 1140 nM in series [3]. In addition, the Ratio Ki in series [5] was 292.
For `O=C(c1ccnc2[nH]cnc12)N1CCC(F)(F)C(Oc2ccc3ccccc3n2)C1` (racemic) the same measures were 89 nM, greater than 5870 nM and greater than 65.
As for `O=C(c1ccccc1-n1nccn1)N1CCC(F)(F)C(Oc2ccnc3ccccc23)C1` (centres undefined), the Ki was 7970 nM in series [1] and 277 nM in series [3]. Besides, the “inhibition (INH)” value in series [2], in series [6] and in series [7] was “Active” each time. Moreover, the solubility entry in series [4] is “Insoluble”. Moreover, in series [5], the Ratio Ki worked out at 0.035.
Turning to `O=C(c1ccccc1F)N1CCC(F)(F)C(Oc2ccc3ccccc3n2)C1` (racemic), the inhibition constant Ki in series [1] is 23 nM; in series [3], greater than 1770 nM. The “inhibition (INH)” value in series [2], in series [6] and in series [7] was “Active” throughout. The solubility result in series [4] is listed as “Insoluble”. Also, in series [5], the Ratio Ki is greater than 77.
`O=C(c1ccc(F)cc1)N1CCC(F)(F)C(Oc2ccc3ccccc3n2)C1` (racemic): the Ki is 1080 nM in series [1] and greater than 4380 nM in series [3]. The “inhibition (INH)” value in series [2], in series [6] and in series [7] was “Active” throughout. Besides, the solubility entry in series [4] is reported as “Insoluble”. The Ratio Ki in series [5] is greater than 4.
Consider `O=C(c1ccccc1-n1nccn1)N1CCC(F)(F)C(O)C1` (centres undefined), for which the Ki was 2240 nM in series [1] and greater than 3370 nM in series [3].
With `COc1ccccc1C(=O)N1CCC(F)(F)C(Oc2ccc3ccccc3n2)C1` (racemic), the Ki is 24 nM in series [1] and greater than 2630 nM in series [3]. Besides, the “inhibition (INH)” value in series [2], in series [6] and in series [7] was “Active” each time. Further, the solubility entry in series [4] is “Insoluble”. Besides, the Ratio Ki in series [5] was greater than 110.
As for `O=C(c1cccc(-n2nccn2)c1)N1CCC(F)(F)[C@@H](Oc2ccc3ccccc3n2)C1`, the Ki stood at 8.3 nM in series [1] and 871 nM in series [3]. For the same compound, the Ratio Ki in series [5] came out at 104.
For `O=C(c1ccccc1-n1nccn1)N1CCC[C@@H](Oc2ccc3ccccc3n2)C1` the same measures were 1.4 nM, 27 nM and 19.
As for `O=C(c1cccc2cncn12)N1CCC(F)(F)C(Oc2ccc3ccccc3n2)C1` (racemic), the Ki is 52 nM in series [1] and greater than 2100 nM in series [3]. Further, the Ratio Ki in series [5] is greater than 40.
On to `COc1ccc(F)c(C(=O)N2CCC(F)(F)[C@@H](Oc3ccc4ccccc4n3)C2)c1F`, for which the Ki in series [1] was 1.1 nM; in series [3], 1230 nM. Moreover, the “inhibition (INH)” value in series [2] is “Active”. The solubility entry in series [4] is “Insoluble”. Also, in series [5], the Ratio Ki amounted to 1120. The results for the INH in series [6] and in series [7] were 10.8 µM and 6.7 µM, respectively.
Consider `O=C(c1ccccc1-n1nccn1)N1CCC(F)(F)C(Oc2nc3ccccc3o2)C1` (centres undefined), for which the Ki worked out at 49 nM in series [1] and 467 nM in series [3]. In addition, the “inhibition (INH)” value in series [2], in series [6] and in series [7] was “Active” in each case. The solubility entry in series [4] is “Insoluble”. Moreover, in series [5], the Ratio Ki amounted to 9.5.
Turning to `COc1cccc(C(=O)N2CCC(F)(F)C(Oc3ccc4ccccc4n3)C2)c1` (racemic), the inhibitory constant (Ki) in series [1] is 9.1 nM; in series [3] it was greater than 4380 nM. The “inhibition (INH)” value in series [2], in series [6] and in series [7] was “Active” in each case. For the same compound, in series [4], the solubility result is given as “Insoluble”. The Ratio Ki in series [5] was greater than 481.
In the case of `COc1ccc(F)c(C(=O)N2CCC(F)(F)C(Oc3ccc4ccccc4n3)C2)c1` (racemic), the values for the Ki in series [1] and in series [3] were 3.4 nM and 1620 nM, respectively. Besides, in series [2], the “inhibition (INH)” value was “Active”. For the same compound, the solubility result in series [4] is “Insoluble”. Moreover, the Ratio Ki in series [5] is 476. Besides, the figures for the INH in series [6] and in series [7] were 10.8 µM and 6.7 µM, respectively.
In the case of `C[C@@H]1CC[C@@H](Oc2ccc3ccccc3n2)CN1C(=O)c1ccccc1-n1nccn1`, the figures for the Ki in series [1] and in series [3] were 3.9 nM and 9 nM, respectively. In series [5], the Ratio Ki worked out at 2.3.
Take `O=C(c1ccccc1-n1nccn1)N1CCC(F)(F)C(Oc2ncc3ccccc3n2)C1` (centres undefined): the Ki was 13 nM in series [1] and 1470 nM in series [3]. Moreover, the “inhibition (INH)” value in series [2], in series [6] and in series [7] was “Active” throughout. Also, in series [4], the solubility entry is “Insoluble”. Also, the Ratio Ki in series [5] stood at 113.
Take `O=C(c1cccc(-n2cccn2)c1)N1CCC(F)(F)[C@@H](Oc2ccc3ccccc3n2)C1`: the values for the inhibitory constant (Ki) in series [1] and in series [3] were 1.1 nM and 627 nM, respectively. Also, the Ratio Ki in series [5] worked out at 570.
For `O=C(c1cncc2[nH]ccc12)N1CCC(F)(F)[C@@H](Oc2ccc3ccccc3n2)C1` the same measures were 0.28 nM, 108 nM and 386.
Take `O=C(c1ccccc1-n1nccn1)N1CCC(F)(F)C(Oc2cccc(C(F)(F)F)n2)C1` (centres undefined): the values for the Ki in series [1] and in series [3] were 240 nM and 907 nM, respectively. Moreover, the “inhibition (INH)” value in series [2], in series [6] and in series [7] was “Active” throughout. Also, the solubility result in series [4] is on record as “Insoluble”. For the same compound, the Ratio Ki in series [5] worked out at 3.8.
`O=C(c1cccc(-c2ncc[nH]2)c1)N1CCC(F)(F)[C@@H](Oc2ccc3ccccc3n2)C1`: the Ki came to 0.14 nM in series [1] and 193 nM in series [3]. Besides, the Ratio Ki in series [5] is 1000 to 1380.
Turning to `O=C(c1ccccc1-n1nccn1)N1CCC(F)(F)C(Oc2cnc3ccccc3n2)C1` (centres undefined), the Ki in series [1] is 13 nM; in series [3], 933 nM. The “inhibition (INH)” value in series [2], in series [6] and in series [7] was “Active” each time. Moreover, in series [4], the solubility entry is “Insoluble”. Besides, the Ratio Ki in series [5] worked out at 72.
As for `O=C(c1ccccc1-n1nccn1)N1CCC(F)(F)C(Oc2ccc3cccnc3n2)C1` (centres undefined), the Ki in series [1] is 1160 nM; in series [3], greater than 1410 nM. For the same compound, the “inhibition (INH)” value in series [2], in series [6] and in series [7] was “Active” each time. Moreover, the solubility entry in series [4] is recorded as “Insoluble”.
`COc1ccc(C[C@H]2c3cc(OC)c(OC)cc3CCN2[C@@H](C(=O)NC(C)C)c2ccccc2)cc1OC` returned a Ki in series [1] of 6 nM.
`O=C(c1cccc2ncccc12)N1CCC(F)(F)C(Oc2ccc3ccccc3n2)C1` (racemic): the Ki in series [1] was determined as 140 nM; in series [3], 861 nM. The Ratio Ki in series [5] came to 6.2.
The matching figures for `O=C(c1ccccc1-c1ncccn1)N1CCC(F)(F)[C@@H](Oc2ccc3ccccc3n2)C1`: 1.8 nM, 281 nM and 156.
